In this assay the test system is GM01896 cells (MPS II dermal fibroblasts). Description: Assay 1: MPS cellular assay, MPS II (heparan sulfate disaccharide biomarkers by LC-MS). The format is cell-based, human. The conditions noted are these: Assay 1 for MPS II, heparan sulfate disaccharide biomarkers (I2a4, I2a6, I2S0 and/or I2S6), read-out: IC50 Range. An outline of the steps: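 MPS II patient dermal fibroblasts (GM01896) treated with compound at ≤30 μM for 4 to 21 days. Heparan sulfate GAGs isolated by anion exchange, digested with heparinases I-III, aniline-tagged against [13C6]aniline standards and quantified by LC-MS; IC50 from curve fitting. Viability monitored by alamar blue or ATP.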

Like-named read-outs stand apart in the source and are kept apart here.

As to `Cn1nc(CN2CCCC2)c2ccc(-c3cc(Nc4ccc(Cl)cc4)nc(N4CCOCC4)n3)cc21` [(4-chlorophenyl){6-[1-methyl-3-(pyrrolidinylmethyl)(1H-indazol-6-yl)]-2-morpholin-4-ylpyrimidin-4-yl}amine], for the setting “Homo sapiens, Fibroblast”, the IC50 is 500 to 1000 nM.

On to `Cn1nc(CCN2CCOCC2)c2ccc(-c3cc(Nc4ccc(-n5cccn5)cc4)nc(N4CCOCC4)n3)cc21` [{6-[1-methyl-3-(2-morpholin-4-ylethyl)(1H-indazol-6-yl)]-2-morpholin-4-ylpyrimidin-4-yl}(4-pyrazolylphenyl)amine], for which the IC50 is less than 500 nM.

Regarding `COCCn1cnc2ccc(-c3cc(Nc4ccc(C(=O)OC)cc4)nc(N4CCOCC4)n3)cc21` [methyl 4-({6-[1-(2-methoxyethyl)benzimidazol-6-yl]-2-morpholin-4-ylpyrimidin-4-yl}amino)benzoate], the IC50 (Homo sapiens, Fibroblast) is less than 500 nM.

As to `Cn1ncc2ccc(Nc3cc(-c4ccc5cnn(C)c5c4)nc(N4CCOCC4)n3)cc21` [(1-methyl(1H-indazol-6-yl))[6-(1-methyl(1H-indazol-6-yl))-2-morpholin-4-ylpyrimidin-4-yl]amine], where the note is “Homo sapiens, Fibroblast”, the IC50 is 1000 to 5000 nM.

As for `Cn1c(C2CC2)nc2ccc(-c3cc(Nc4ccc(Cl)cc4)nc(N4CCOCC4)n3)cc21` [(4-chlorophenyl)[6-(2-cyclopropyl-1-methylbenzimidazol-6-yl)-2-morpholin-4-ylpyrimidin-4-yl]amine], the IC50 (Homo sapiens, Fibroblast) lay in the range of 500 to 1000 nM.

As for `Cc1nn(C)c2cc(-c3cc(Nc4ccc(-c5cocn5)cc4)nc(N4CCOCC4)n3)ccc12` [[6-(1,3-dimethyl(1H-indazol-6-yl))-2-morpholin-4-ylpyrimidin-4-yl](4-(1,3-oxazol-4-yl)phenyl)amine], for the setting “Homo sapiens, Fibroblast”, the IC50 is less than 500 nM.

Turning to `CNC(=O)c1ccc(Nc2cc(-c3ccc4c(c3)ncn4C)nc(N3CCOCC3)n2)cc1` [N-methyl(4-{[6-(1-methylbenzimidazol-5-yl)-2-morpholin-4-ylpyrimidin-4-yl]amino}phenyl)carboxamide], the IC50 (Homo sapiens, Fibroblast) is less than 500 nM.

With `CNC(=O)c1ccc(Nc2cc(-c3ccc4ncn(CCCN5CCOCC5)c4c3)nc(N3CCOCC3)n2)cc1` [N-methyl[4-({2-morpholin-4-yl-6-[1-(3-morpholin-4-ylpropyl)benzimidazol-6-yl]pyrimidin-4-yl}amino)phenyl]carboxamide], the IC50 (Homo sapiens, Fibroblast) is 1000 to 5000 nM.

As for `Cn1cnnc1-c1ccc(Nc2cc(-c3ccc4cnn(C)c4c3)nc(N3CCOCC3)n2)cc1` [[4-(4-methyl(1,2,4-triazol-3-yl))phenyl][6-(1-methyl(1H-indazol-6-yl))-2-morpholin-4-ylpyrimidin-4-yl]amine], the IC50 (Homo sapiens, Fibroblast) fell in the range of 1000 to 5000 nM.

With `Cn1cnc2ccc(-c3cc(Nc4ccc(C(=O)NCC5CC5)cc4)nc(N4CCOCC4)n3)cc21` [N-(cyclopropylmethyl)(4-{[6-(1-methylbenzimidazol-6-yl)-2-morpholin-4-ylpyrimidin-4-yl]amino}phenyl)carboxamide], under “Homo sapiens, Fibroblast”, the IC50 was 500 to 1000 nM.

For `Cn1cnc2ccc(-c3cc(Nc4ccccc4)nc(N4CCOCC4)n3)cc21` [[6-(1-methylbenzimidazol-6-yl)-2-morpholin-4-ylpyrimidin-4-yl]phenylamine], the IC50 (Homo sapiens, Fibroblast) lay in the range of 1000 to 5000 nM.

Take `Cn1ncc2ccc(-c3cc(Nc4ccc(S(C)(=O)=O)cc4)nc(N4CCOCC4)n3)cc21` [1-{[6-(1-methyl(1H-indazol-6-yl))-2-morpholin-4-ylpyrimidin-4-yl]amino}-4-(methylsulfonyl)benzene]: under “Homo sapiens, Fibroblast”, the 50% inhibitory concentration (IC50) fell in the range of 1000 to 5000 nM.

Regarding `Cc1nn(C)c2cc(-c3cc(Nc4ccc(-c5ncon5)cc4)nc(N4CCOCC4)n3)ccc12` [[6-(1,3-dimethyl(1H-indazol-6-yl))-2-morpholin-4-ylpyrimidin-4-yl](4-(1,2,4-oxadiazol-3-yl)phenyl)amine], under “Homo sapiens, Fibroblast”, the IC50 was in the range of 500 to 1000 nM.

Regarding `Clc1ccc(Nc2cc(-c3ccc4c(c3)ncn4CCN3CCOCC3)nc(N3CCOCC3)n2)cc1` [(4-chlorophenyl){2-morpholin-4-yl-6-[1-(2-morpholin-4-ylethyl)benzimidazol-5-yl]pyrimidin-4-yl}amine], the 50% inhibitory concentration (IC50) (Homo sapiens, Fibroblast) fell in the range of 500 to 1000 nM.

For `COc1ccc(Nc2cc(-c3ccc4ncn(C)c4c3)nc(N3CCOCC3)n2)cc1` [(4-methoxyphenyl)[6-(1-methylbenzimidazol-6-yl)-2-morpholin-4-ylpyrimidin-4-yl]amine], where the note is “Homo sapiens, Fibroblast”, the IC50 fell in the range of 1000 to 5000 nM.

As for “{6-[1-methyl-3-(2-morpholin-4-ylethyl)(1H-indazol-6-yl)]-2-morpholin-4-ylpyrimidin-4-yl}[4-(3-methylpyrazolyl)phenyl]amine”, the IC50 was less than 500 nM.

For the compound `Cn1ncc2ccc(-c3cc(Nc4ccc(-c5nnc(C(F)(F)F)[nH]5)cc4)nc(N4CCOCC4)n3)cc21` [[6-(1-methyl(1H-indazol-6-yl))-2-morpholin-4-ylpyrimidin-4-yl]{4-[5-(trifluoromethyl)(4H-1,2,4-triazol-3-yl)]phenyl}amine], the IC50 (Homo sapiens, Fibroblast) fell in the range of 1000 to 5000 nM.

In the case of `Cn1cnc2ccc(-c3cc(Nc4ccc(C(=O)NC5CC5)cc4)nc(N4CCOCC4)n3)cc21` [N-cyclopropyl(4-{[6-(1-methylbenzimidazol-6-yl)-2-morpholin-4-ylpyrimidin-4-yl]amino}phenyl)carboxamide], the IC50 (Homo sapiens, Fibroblast) fell in the range of 1000 to 5000 nM.

With `Cc1nn(C)c2cc(-c3cc(Nc4ccc(-n5cccn5)cc4)nc(N4CCOCC4)n3)ccc12` [[6-(1,3-dimethyl(1H-indazol-6-yl))-2-morpholin-4-ylpyrimidin-4-yl](4-pyrazolylphenyl)amine], the IC50 was less than 500 nM.

For `Cn1ncc2ccc(-c3cc(Nc4ccc(-c5nnc[nH]5)cc4)nc(N4CCOCC4)n3)cc21` [(4-(4H-1,2,4-triazol-3-yl)phenyl)[6-(1-methyl(1H-indazol-6-yl))-2-morpholin-4-ylpyrimidin-4-yl]amine], the IC50 (Homo sapiens, Fibroblast) is less than 500 nM.

Regarding `CNC(=O)c1ccc(Nc2cc(-c3ccc4c(c3)ncn4C)nc(N3CCOCC3)n2)cn1` [N-methyl(5-{[6-(1-methylbenzimidazol-5-yl)-2-morpholin-4-ylpyrimidin-4-yl]amino}(2-pyridyl))carboxamide], the IC50 (Homo sapiens, Fibroblast) lay in the range of 500 to 1000 nM.

Turning to `Cn1ncc2ccc(-c3cc(Nc4ccc(-c5cnn[nH]5)cc4)nc(N4CCOCC4)n3)cc21` [(4-(1H-1,2,3-triazol-5-yl)phenyl)[6-(1-methyl(1H-indazol-6-yl))-2-morpholin-4-ylpyrimidin-4-yl]amine], the IC50 (Homo sapiens, Fibroblast) lay in the range of 1000 to 5000 nM.

`Cc1nn(C)c2cc(-c3cc(Nc4ccc5cn(C)nc5c4)nc(N4CCOCC4)n3)ccc12` [[6-(1,3-dimethyl(1H-indazol-6-yl))-2-morpholin-4-ylpyrimidin-4-yl](2-methyl(2H-indazol-6-yl))amine]: for the setting “Homo sapiens, Fibroblast”, the IC50 lay within 1000 to 5000 nM.

As for `Clc1ccc(Nc2cc(-c3ccc4nc[nH]c4c3)nc(N3CCOCC3)n2)cc1` [(6-benzimidazol-6-yl-2-morpholin-4-ylpyrimidin-4-yl)(4-chlorophenyl)amine], the half-inhibitory concentration (IC50) (Homo sapiens, Fibroblast) was 500 to 1000 nM.

As for `Cc1nn(C)c2cc(-c3cc(Nc4ccc(-c5ccn(C)n5)cc4)nc(N4CCOCC4)n3)ccc12` [[6-(1,3-dimethyl(1H-indazol-6-yl))-2-morpholin-4-ylpyrimidin-4-yl][4-(1-methylpyrazol-3-yl)phenyl]amine], where the note is “Homo sapiens, Fibroblast”, the IC50 fell in the range of 1000 to 5000 nM.

For the compound `Cn1c(=O)[nH]c2ccc(-c3cc(Nc4ccc(Cl)cc4)nc(N4CCOCC4)n3)cc21` [6-{6-[(4-chlorophenyl)amino]-2-morpholin-4-ylpyrimidin-4-yl}-1-methyl-3-hydrobenzimidazol-2-one], the IC50 was less than 500 nM.

As to `Cn1cnc2cc(Nc3cc(-c4ccc5cnn(C)c5c4)nc(N4CCOCC4)n3)ccc21` [[6-(1-methyl(1H-indazol-6-yl))-2-morpholin-4-ylpyrimidin-4-yl](1-methylbenzimidazol-5-yl)amine], where the note is “Homo sapiens, Fibroblast”, the IC50 was in the range of 1000 to 5000 nM.

For `Cn1ccc(-c2ccc(Nc3cc(-c4ccc5cnn(C)c5c4)nc(N4CCOCC4)n3)cc2)n1` [[6-(1-methyl(1H-indazol-6-yl))-2-morpholin-4-ylpyrimidin-4-yl][4-(1-methylpyrazol-3-yl)phenyl]amine], the IC50 (Homo sapiens, Fibroblast) is 500 to 1000 nM.

On to `CNC(=O)c1ccc(Nc2cc(-c3ccc4cnn(CCN(C)C)c4c3)nc(N3CCOCC3)n2)cc1` [{4-[(6-{1-[2-(dimethylamino)ethyl](1H-indazol-6-yl)}-2-morpholin-4-ylpyrimidin-4-yl)amino]phenyl}-N-methylcarboxamide], for which, under “Homo sapiens, Fibroblast”, the IC50 is 500 to 1000 nM.

As for `Cn1nc(CCCN2CCCC2)c2ccc(-c3cc(Nc4ccc(Cl)cc4)nc(N4CCOCC4)n3)cc21` [(4-chlorophenyl){6-[1-methyl-3-(3-pyrrolidinylpropyl)(1H-indazol-6-yl)]-2-morpholin-4-ylpyrimidin-4-yl}amine], for the setting “Homo sapiens, Fibroblast”, the IC50 was in the range of 500 to 1000 nM.

As to `Cn1ncc2ccc(-c3cc(Nc4ccc(C(=O)NC5(C)CC5)cc4)nc(N4CCOCC4)n3)cc21` [(4-{[6-(1-methyl(1H-indazol-6-yl))-2-morpholin-4-ylpyrimidin-4-yl]amino}phenyl)-N-(methylcyclopropyl)carboxamide], the IC50 (Homo sapiens, Fibroblast) is 1000 to 5000 nM.

As to `Cn1ncc2ccc(-c3cc(Nc4ccc(-n5nccn5)cc4)nc(N4CCOCC4)n3)cc21` [[6-(1-methyl(1H-indazol-6-yl))-2-morpholin-4-ylpyrimidin-4-yl](4-(1,2,3-triazol-2-yl)phenyl)amine], the IC50 (Homo sapiens, Fibroblast) was less than 500 nM.

Regarding `CNC(=O)c1ccc(Nc2cc(-c3ccc4c(cnn4C)c3)nc(N3CCOCC3)n2)cn1` [N-methyl(5-{[6-(1-methyl(1H-indazol-5-yl))-2-morpholin-4-ylpyrimidin-4-yl]amino}(2-pyridyl))carboxamide], the IC50 (Homo sapiens, Fibroblast) fell in the range of 500 to 1000 nM.

With `Cn1nc(CCN2CCOCC2)c2ccc(-c3cc(Nc4ccc(F)cc4)nc(N4CCOCC4)n3)cc21` [(4-fluorophenyl){6-[1-methyl-3-(2-morpholin-4-ylethyl)(1H-indazol-6-yl)]-2-morpholin-4-ylpyrimidin-4-yl}amine], for the setting “Homo sapiens, Fibroblast”, the IC50 is 1000 to 5000 nM.

Take `Clc1ccc(Nc2cc(-c3ccc4cnn(CCCN5CCOCC5)c4c3)nc(N3CCOCC3)n2)cc1` [(4-chlorophenyl){2-morpholin-4-yl-6-[1-(3-morpholin-4-ylpropyl)(1H-indazol-6-yl)]pyrimidin-4-yl}amine]: the concentration for half-maximal inhibition (IC50) (Homo sapiens, Fibroblast) was in the range of 1000 to 5000 nM.

(Values after patent US20190151312A1, “HEPARAN SULFATE BIOSYNTHESIS INHIBITORS FOR THE TREATMENT OF DISEASES” (BioMarin Pharmaceutical Inc., priority 2014, published 2019).)
